Measurements from paper PMC8154566, “Scaffold-Hopping Strategy on a Series of Proteasome Inhibitors Led to a Preclinical Candidate for the Treatment of Visceral Leishmaniasis” (Journal of Medicinal Chemistry, 2021).
Converted amounts (≈) assume the structure as drawn. Like-named read-outs stand apart in the source and are kept apart here. Marks after values point to notes of the source that are not given here.

Experiments:
[1] = test system: L. donovani amastigotes; assay: INMAC assay: intramacrophage L. donovani in differentiated THP-1 cells; format: cell-based, Leishmania donovani; settings: Leishmania donovani, THP-1, INMAC
In short: (§1)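 Intramacrophage L. donovani amastigotes in differentiated THP-1 cells, run per an earlier protocol but with 96 h compound exposure instead of 72 h. Aqueous solubility also follows a previously described method.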

[2] = Kinetic aqueous solubility by CLND; format: physicochemical; settings: CLND
In short: as §1

[3] = in vivo; format: in vivo; settings: mouse
Protocol: Intramacrophage L. donovani Assay. This assay was conducted as previously described, except for compound exposure time, which was 96 h instead of 72 h.4 […]
All regulated procedures on living animals were carried out under the authority of a project license issued by the Home Office under the Animals (Scientific Procedures) Act 1986, as amended in 2012 (and in compliance with EU Directive EU/2010/63). Infected animals had access to food and water ad libitum and were housed under a 12 hour light/dark photoperiod. Animals used in these experiments were female NMRI and Balb/c mice (Harlan, UK).
Test compound DDD01008714 was dosed orally (P.O.) at 10 mg free base/kg (dose volume 10 mL/kg; dose vehicle: 10% (vol/vol) dimethyl sulfoxide (DMSO), 40% polyethylene glycol 400 (PEG400) and 50% deionized water) to female NMRI mice (n = 3) or intravenously (I.V.) at 3 mg free base/kg (dose volume 5 mL/kg; dose vehicle: 10% (vol/vol) dimethyl sulfoxide (DMSO) and 90% Saline) to female Balb/c mice (n = 3). Blood samples (10 μL) where taken from the tail vein of […]
samples for I.V. leg only) and mixed with two volumes of deionized water (20 μL). After suitable sample preparation, the concentration of test compound in the whole blood from treated mice was determined by UPLC-MS/MS using a Quattro Premier XE (Waters, USA). Pharmacokinetic parameters were derived from the mean blood concentration time curve using PK solutions software v 2.0 (Summit Research Services, USA). […]
of concentration vs. Time for 4, dosed at 10 mg/kg. Extrapolated to 50 mg/kg assuming a linear dose increase, showing potential coverage above EC90 for approximately 6 hours […]
(1 picture or pasted object on this page, not shown here)

[4] = test system: infected mouse model of VL; assay: Infected mouse model of VL; format: in vivo; settings: 50 mg/kg ip, b.i.d for 5 days
Protocol: In vivo Mouse Efficacy Studies. In vivo studies were carried out as previously described, with minor modifications.7 Briefly: Control drug used was Miltefosine (30 mg/kg orally, twice daily for 5 days), vehicle used was 10% (v/v) dimethyl sulfoxide (DMSO), 40% polyethylene glycol 400, and 50% deionized water (10 Ml/kg orally, twice daily for 5 days) and mice were treated with test compound intraperitoneally (50 mg/kg twice daily for 5 days).

[5] = test system: L. donovani amastigotes; settings: cited from earlier work; for LdInMac pIC50: supplementary csv, flagged as reported previously in the main tables
[6] = test system: THP-1 cells; settings: cited from earlier work; for THP1 pIC50: supplementary csv, flagged as reported previously in the main tables
[7] = set-up: method as in PMID 30962368; settings: after 3 h; cited from earlier work
[8] = set-up: method as in PMID 30962368; settings: after 3 h; cited from earlier work; remark: listed apart in the source
[9] = set-up: method as in PMID 30962368; settings: cited from earlier work
[10] = cited from earlier work
[11] = supplementary csv; flagged as reported previously in Table 5; cited from earlier work
[12] = female, Balb/c, in vivo, iv PK 3 mg/kg
[13] = female, NMRI, in vivo, po PK 10 mg/kg

**Q.** For `O=C(Nc1ccc(F)c(-c2cn3cc(N4CCOCC4)cnc3n2)c1)N1CCCC1` [Compound 4], which EC90 ([1]; pEC90 5.7 expressed as concentration, read-out: EC90) is on record?
**A.** 0.78 µg/mL

**Q.** And the EC90 ([1]; read-out: pEC90 (converted))?
**A.** 2000 nM

**Q.** And the solubility ([2]; Table 1, kinetic solubility, read-out: aqueous solubility)?
**A.** 150 µM (≈ 61.6 µg/mL)

**Q.** What about the solubility ([2]; Table 2, kinetic, read-out: Aq. solubility) of the same compound?
**A.** 150 µM (≈ 61.6 µg/mL)

**Q.** What about the AUC at 24 h [3, 12] of the same compound?
**A.** 2250 ng·h/mL

**Q.** And the half-life at 24 h [3, 12]?
**A.** 30 min

**Q.** And the bioavailability at 24 h ([3]; female, NMRI, in vivo, po PK 10 mg/kg vs iv 3 mg/kg)?
**A.** 57%

**Q.** What about the AUC at 24 h [3, 13] of the same compound?
**A.** 4300 ng·h/mL

**Q.** And the Cmax at 24 h [3, 13]?
**A.** 1300 ng/mL

**Q.** What about the Tmax at 24 h [3, 13] of the same compound?
**A.** 30 min

**Q.** What about the Clb ([3]; iv PK 3 mg/kg) of the same compound?
**A.** 22 mL/min/kg

**Q.** What about the Vdss ([3]; listed under po PK (10 mg/kg)) of the same compound?
**A.** 0.8 L/kg

**Q.** What about the “time with blood levels above EC90” value ([3]; oral dose of 10 mg/kg) of the same compound?
**A.** around 2 h

**Q.** And the “% reduction in parasitemia” value [4]?
**A.** 98%

**Q.** And the “INMAC pEC50” value ([5]; Table 1, five independent replicates, SD ≤0.2)?
**A.** 6.2

**Q.** And the “INMAC pEC50” value ([5]; Table 2)?
**A.** 6.2^e

**Q.** What about the “LdInMac pIC50” value [5] of the same compound?
**A.** 6.2

**Q.** What about the “THP-1 cells pEC50” value ([6]; Table 1) of the same compound?
**A.** <4.3

**Q.** And the “THP1 pIC50” value [6]?
**A.** <4.3

**Q.** What about the “mouse plasma stability, compound remaining” value [7] of the same compound?
**A.** 100%

**Q.** And the “human plasma stability, compound remaining” value [8]?
**A.** 100%

**Q.** What about the Ames assay result [9] of the same compound?
**A.** positive

**Q.** What about the CLi ([10]; Table 1, mouse liver microsomes) of the same compound?
**A.** <0.5 mL/min/g

**Q.** What about the “Mouse CLi” value ([10]; Table 2, mouse liver microsomes) of the same compound?
**A.** <0.5^e mL/min/g

**Q.** What about the “Cli (mouse, ml/min/g)” value ([10]; supplementary csv, mouse, flagged as reported previously in the main tables) of the same compound?
**A.** <0.5 mL/min/g

**Q.** Which “INMAC pEC50” value ([5]; Table 5) does the source give for `O=C(Nc1ccc(F)c(-c2nc3cc(N4CCOCC4)cnn3n2)c1)N1CCCC1` [Compound 24, N-(4-Fluoro-3-(7-morpholino-[1,2,4]triazolo[1,5-b]pyridazin-2-yl)phenyl)pyrrolidine-1-carboxamide] here?
**A.** 6.1

**Q.** And the “LdInMac pIC50” value [5]?
**A.** 6.1

**Q.** What about the “THP-1 pEC50” value ([6]; Table 5) of the same compound?
**A.** <4.3

**Q.** What about the “THP1 pIC50” value [6] of the same compound?
**A.** <4.3

**Q.** And the “Aqueous Solubility” value [11]?
**A.** 420 µM
